# Reference: patent US6605589B1, “Cathepsin inhibitors in cancer treatment” (Parker Hughes Institute, priority 2000, dated 2003)
# Tests used:
# Test in all cases: In vitro clonogenic assay
# Type in all cases: cell-based, human
# [1] = test system: HL-60 (AML); settings: CATI-1 10 uM, 24 hours
# Procedure: (§1) In vitro clonogenic assays were carried out to determine the cytotoxic activity of the cathepsin inhibitor I (CATI-1) (Z-Phe-Gly-NHO-Bz) against cancer cells. The cancer cell lines used in the assay were U373 (glioblastoma), BT-20 (breast cancer), SQ20B (squamous cell carcinoma), RS4;11 (pro-B ALL), ALL-1 (pre-pre-B ALL), KM-3, MOLT-3 (T-ALL), JURKAT (T-ALL), K-562 (CML), HL-60 (AML), DAUDI (NHL), RAMOS (NHL) and RAJI (NHL). Each cell line was treated under several concentrations of CATI-1 for 24 hours, washed with serum free medium and resuspended in clonogenic medium having 10% fetal bovine serum and 0.9% methylcellulose. Resuspended cells were plated in duplicate 35-mm Petri dishes at 10,000 to 20,000 cells per dish and cultured at 37° C. in a humidified 5% CO2 atmosphere for 5 to 7 days.
# (§2) Images of colonies in each dish were taken by a digital camera (Princeton Instruments, Inc.) linked to a microscope (Nikon Diaphot 200). Colony numbers were determined using an inverted phase microscope and percent inhibition of colony formation determined using the formula:
# (§3) % inhibition=(1−(colony number in test sample/colony number in control sample))×100.
# [2] = test system: RAJI (NHL); settings: for %, inhibition / Mean no, of colonies: 24 hours
# Procedure: as §1, §2, §3
# [3] = test system: ALL-1 (pre-pre B ALL); settings: for %, inhibition / Mean no, of colonies: 24 hours
# Procedure: as §1, §2, §3
# [4] = test system: BT-20 (breast cancer); settings: 24 hours
# Procedure: as §1, §2, §3
# [5] = test system: KM-3 (pre-B ALL); settings: 24 hours
# Procedure: as §1, §2, §3
# [6] = test system: RS4;11 (pro-B ALL); settings: for %, inhibition / Mean no, of colonies: 24 hours
# Procedure: as §1, §2, §3
# [7] = test system: RAMOS (NHL); settings: for %, inhibition / Mean no, of colonies: 24 hours
# Procedure: as §1, §2, §3
# [8] = test system: K-562 (CML); settings: CATI-1 10 uM, 24 hours
# Procedure: as §1, §2, §3
# [9] = read-out: IC50 (colony formation)
smiles,measurement,setting,value
"O=C(CNC(=O)[C@H](Cc1ccccc1)NC(=O)OCc1ccccc1)NOC(=O)c1ccccc1 [CATI-1, Z-Phe-Gly-NHO-Bz]","%, inhibition",[1],100%
same,"Mean no, of colonies",[1],"0 (0, 0)"
same,"%, inhibition",[2]; CATI-1 10 uM,86.5%
same,"Mean no, of colonies",[2]; CATI-1 10 uM,"168 (124, 212)"
same,"%, inhibition",[2]; CATI-1 20 uM,97.4%
same,"Mean no, of colonies",[2]; CATI-1 20 uM,"32 (40, 24)"
same,"%, inhibition",[2]; CATI-1 35 uM,100%
same,"Mean no, of colonies",[2]; CATI-1 35 uM,"0 (0, 0)"
same,IC50,[2]; [9],5.8 µM
same,"%, inhibition",[3]; CATI-1 10 uM,80.4%
same,"Mean no, of colonies",[3]; CATI-1 10 uM,"338 (348, 328)"
same,"%, inhibition",[3]; CATI-1 20 uM,99.6%
same,"Mean no, of colonies",[3]; CATI-1 20 uM,"7 (6, 8)"
same,"%, inhibition",[3]; CATI-1 35 uM,100%
same,"Mean no, of colonies",[3]; CATI-1 35 uM,"0 (0, 0)"
same,IC50,[3]; [9],6.2 µM
same,"%, inhibition",[4]; CATI-1 50 uM,95%
same,"Mean no, of colonies",[4]; CATI-1 50 uM,"177 (154, 200)"
same,"%, inhibition",[4]; CATI-1 100 uM,100%
same,"Mean no, of colonies",[4]; CATI-1 100 uM,0
same,"%, inhibition",[5]; CATI-1 10 uM,79.2%
same,"Mean no, of colonies",[5]; CATI-1 10 uM,"578 (520, 636)"
same,"%, inhibition",[5]; CATI-1 20 uM,100%
same,"Mean no, of colonies",[5]; CATI-1 20 uM,"0 (0, 0)"
same,"%, inhibition",[6]; CATI-1 10 uM,10.6%
same,"Mean no, of colonies",[6]; CATI-1 10 uM,"2676 (2160, 3192)"
same,"%, inhibition",[6]; CATI-1 20 uM,96.8%
same,"Mean no, of colonies",[6]; CATI-1 20 uM,"96 (116, 76)"
same,"%, inhibition",[6]; CATI-1 35 uM,100%
same,"Mean no, of colonies",[6]; CATI-1 35 uM,"0 (0, 0)"
same,IC50,[6]; [9],14.6 µM
same,"%, inhibition",[7]; CATI-1 10 uM,47.1%
same,"Mean no, of colonies",[7]; CATI-1 10 uM,"1442 (1344, 1540)"
same,"%, inhibition",[7]; CATI-1 20 uM,78.2%
same,"Mean no, of colonies",[7]; CATI-1 20 uM,"594 (660, 528)"
same,"%, inhibition",[7]; CATI-1 35 uM,100%
same,"Mean no, of colonies",[7]; CATI-1 35 uM,"0 (0, 0)"
same,IC50,[7]; [9],10.1 µM
same,"%, inhibition",[8],19.0%
same,"Mean no, of colonies",[8],"3806 (3980, 3632)"
